{"source": "patent US12263177B2", "about": "“Biologically active ganoderma lucidum compounds and synthesis of anticancer derivatives; ergosterol peroxide probes for cellular localization” (priority 2019, dated 2025)", "key": {"[1]": {"tested_on": "T47D", "assay": "Cytotoxicity of EP probes via CTG assay", "type": "cell-based", "details": "72 hr"}, "[2]": {"tested_on": "SUM-149", "assay": "Cytotoxicity of EP probes via CTG assay", "type": "cell-based, human", "details": "72 hr, read-out: SUM149 EC50"}, "[3]": {"tested_on": "HMEC", "assay": "Cytotoxicity of EP probes via CTG assay, normal cells", "type": "cell-based", "details": "72 hr"}, "[4]": {"tested_on": "MDA-MB-231, SUM-149, T47D", "assay": "Cytotoxicity of EP analogues via CTG assay, comparison across cell lines", "details": "72 hr", "procedure": "To better understand the structure-activity-relationship of EP, its core was modified at the C3 position of the steroid backbone. […] Both normal cell lines HMEC and BJ cells were also evaluated to determine therapeutic index.\n(§1) Either 1×10^3-4.8×10^3 or 4×10^2-1.2×10^3 cells were seeded to each well of 96- or 384-well white polystyrene flat-bottomed plates (3610 or 8804BC, Corning) in 100 μL or 30 μL media per well, respectively. The concentrations used were experimentally determined to ensure logarithmic growth during the duration of the experiment and prevent adverse effects on cell growth by DMSO exposure. The plates were incubated at 37° C. in 5% CO2 for 24 h before treatment. Stock solutions of test compounds (10 mM in DMSO) in nine 3-fold serial dilutions were dispensed via pintool (Biomek). The final concentration of DMSO was 0.3% (v/v) in each well. The plates were incubated for 72 h at 37° C. in 5% CO2 and then quenched with CellTiter-Glo® reagent (50 μL/well in 96-well plate, 30 μL/well in 384-well plate) at RT. The positive controls included staurosporine (10 μM), gambogic acid (10 μM), and a toxic quinoline generated in-house. Plates were then incubated at RT for 20 min and centrifuged at 1000 rpm for 1 min. The cytotoxicity assay was performed by using the CellTiterGlo Luminescent Cell Viability Assay kit (G7570, Promega, Madison, WI) according to the manufacturer's instructions. Luminescence was recorded in an Envision plate reader (Perkin Elmer)."}, "[5]": {"tested_on": "MDA-MB-231", "assay": "Cytotoxicity of EP probes via CTG assay", "type": "cell-based, human", "details": "72 hr, read-out: MDA-MB231 EC50"}, "[6]": {"assay": "Propidium iodide assay", "type": "cell-based", "procedure": "Efforts to address the specific target in breast cancer cellular models are disclosed. Thus, in the present disclosure, the EP-chemical probes were generated to study subcellular co-localization in order to recover its potential mechanism in breast cancer cell models. An efficient synthetic approach to EP and its analogues from ergosterol was developed. The resultant EP compounds were evaluated for cytotoxicity/apoptosis via CellTiterGlo assay, and propidium iodide assay."}, "[7]": {"assay": "Solubility observations", "type": "physicochemical", "details": "DMSO", "procedure": "One of the liabilities with EP is sharing its core with cholesterol, an amphipathic molecule with part-water soluble, part-water insoluble character. Thus, while able to readily cross the cell membrane, the ability to deliver the pure compound faces challenges. EP's solubility properties are poor in DMSO or water unless warmed up to 30° C. However, in this report, EP's derivative, EP sulfonamide, was soluble at 10 mM in DMSO. Thus, the generation of a selective anti-cancer compound with greater potency than EP, and ample therapeutic window when compared to BJ normal cells, was accomplished."}, "[8]": {"tested_on": "BJ cells", "assay": "Cell viability assay in normal fibroblasts", "details": "at the concentrations tested", "procedure": "The compounds' activity was also evaluated in human and murine leukemia (KOPN8, BCR-ABL, UoCB-1, SUP-B15, NALM06) cell lines. As a control, normal human skin fibroblasts (BJ) cells and non-cancerous mammary epithelial cells (MCF10A) were used.\nDifferent concentrations of GLE-extracted bioactive chemical components were tested for 72-h treatment periods.\nas §1, with “The cytotoxicity assay was performed by using the CellTiterGlo Luminescent Cell Viability Assay kit (G7570, Promega, Madison, WI) according to the manufacturer's instructions.” left out\nFor the CTG assay, 3 or 4 replicate assays were conducted for each experimental condition, and a minimum of 3 independent experiments were conducted for cellular assays. The mean luminescence of each experimental treatment group was normalized as a percentage of the mean intensity of untreated controls. EC50 values (μM) were calculated by Pipeline Pilot Software (Accelrys, Enterprise Platform, CA, USA). EC50 values (μM) from the viability assay were calculated from dose response curve-fitting via non-linear regression by using GraphPad Prism (Version 7.0 San Diego, CA). […]"}, "[9]": {"tested_on": "SUM-149 cells", "assay": "Cell viability assay (CellTiter-Glo or PI staining)", "type": "cell-based, human"}, "[10]": {"tested_on": "SUM-149 cells", "assay": "ApoTox-Glo Triplex assay (caspase 3/7)", "type": "cell-based, human", "details": "SUM-149, 24 h", "procedure": "(§2) Cells commonly fail to bypass the G1 phase of the cycle due to mutations or DNA damage, which can result in apoptosis. […] In addition, caspase 3/7 activity assays were performed as an alternate method of apoptosis detection.\n(§3) Cells (9.5×10^4/well in 75 μL of fresh medium) were dispensed in 96-well black flat bottom (8807BC, Corning) plates. The cells were incubated for 12 h at 37° C. and then treated with compounds (25 μL) for 24 h. DMSO was used as a negative control, and staurosporine was used as the positive control. The experiment was stopped by adding the Viability/Cytotoxicity Reagent and briefly mixed by orbital shaking (300-500 rpm for ˜30 sec). Plates were incubated for 30 min at 37° C., and fluorescence was measured in an Envision plate reader at the following two wavelength sets: 400Ex/505Em (Viability) 485Ex/520Em (Cytotoxicity). Then, the Caspase-Glo® 3/7 Reagent was added; plates were mixed briefly by orbital shaking (300-500 rpm for ˜30 sec), followed by an additional 30 min incubation at RT. Then luminescence, which correlates with caspase 3/7 activation, was recorded with a plate reader to determine apoptosis induction."}, "[11]": {"tested_on": "MDA-MB-231 cells", "assay": "ApoTox-Glo Triplex assay (caspase 3/7)", "type": "cell-based, human", "details": "MDA-MB-231, 24 h", "procedure": "as §2, §3"}, "[12]": {"tested_on": "MDA-MB-231 breast cancer cells", "assay": "De novo in-cell protein synthesis (click assay)", "type": "cell-based, human", "details": "2 h treatment; EP 20 μM", "procedure": "First, 2.5×10^4 cells/well were seeded in 8-well μ-slides (Ibidi®, #80826) and incubated at 37° C. for 12 h. The cells were treated with vehicle, compounds Ganoderic acid A or EP, or cycloheximide (positive control) for 2 h to determine protein synthesis as nascent proteins generated using Biovision's EZClick™ Global Protein Synthesis Assay Kit, (#K715-100, Milpitas, CA). The assay includes a robust chemical method based on an alkyne containing o-propargyl-puromycin (OP-puro) probe, which stops translation by forming covalent conjugates with nascent polypeptide chains. Truncated polypeptides are rapidly turned over by the proteasome and can be detected based on the subsequent click reaction with a fluorescent azide. The reaction was conducted according to the manufacturer's protocol. Cells were imaged at 20× with a Nikon C2 scanning confocal microscope, and the whole image montage was quantified by using Gen5 Software and Lionheart™ FX Automated Microscope (BioTek, Winooski, VT)."}, "[13]": {"tested_on": "MCF-7 breast cancer cells", "assay": "Reactive oxygen species (ROS) measurement, CellROX", "type": "cell-based, human", "details": "not statistically significant for the GLE compounds", "procedure": "Live-cell CellROX® assays for oxidative stress detection were conducted to evaluate whether GA-01, ergosterol, 5-6-dihydroergosterol and EP trigger intrinsic apoptosis pathways by inducing ROS. […] Menadione or t-Butyl hydrogen peroxide (TBHP) were positive controls (FIGS. 7 and S5) and co-treated with N-acetyl cysteine (NAC) to confirm that the signal was due to ROS formation induced by the compound. […] Furthermore, the possibility of the endoperoxide motif to react with NAC, was assessed EP was incubated with NAC in DMSO for 24 h at 37° C. […] Thus, the ability of EP to induce ROS could potentially be via a different mechanism from that of TBHP in MCF-7 cells.\nThe mRuby-Mito-7 plasmid was obtained from Addgene (#55874 from Michael Davidson). A stable clone of MCF-7 was generated by using Fugene 6 (Roche) to transfect cells (2×10^5) with plasmid (2.0 μg) under neomycin selection. A stable cell line was selected by using G418 (300 μg/mL) for 2 weeks, sorted by flow cytometry, and maintained under G418 thereafter. Transfected MCF-7 cells were plated at a density of 2×10^4 cells/well in black 96-well clear bottom tissue culture plates and incubated overnight at 37° C. […] Fluorescence intensity was measured in a Clariostar® plate reader (BMG LABTECH, Cary, NC) at 535 nm."}, "[14]": {"tested_on": "various breast cancer cell lines", "assay": "Cell viability assay, breast cancer cell line panel", "type": "cell-based"}, "[15]": {"tested_on": "MDA-MB-231 cells", "assay": "Reactive oxygen species (ROS) measurement, CellROX", "type": "cell-based, human", "details": "NAC 500 μM"}, "[16]": {"tested_on": "SUM-149 cells", "assay": "Reactive oxygen species (ROS) measurement, CellROX", "type": "cell-based, human", "details": "NAC 500 μM"}}}
{"smiles": "CC(C)C(C)C=CC(C)C1CCC2C1(C)CCC1C23C=CC2(CC(OC(=O)CCCCC4SCC5NC(=O)NC54)CCC12C)OO3", "note": "(stereo not shown) [3k]", "values": [{"measurement": "EC50", "setting": "[1]", "value": "> 10", "unit": "µM"}, {"measurement": "EC50", "setting": "[2]", "value": 4, "unit": "µM"}, {"measurement": "EC50", "setting": "[3]", "value": "> 14", "unit": "µM"}, {"measurement": "cytotoxicity compared with parental compound 3 (in words)", "setting": "[4]", "value": "comparable cytotoxicity to the parental compound 3"}, {"measurement": "EC50", "setting": "[5]", "value": 10, "unit": "µM"}, {"measurement": "ability to induce apoptosis", "setting": "[6]", "value": "validated via propidium iodide assay"}]}
{"smiles": "CC(C)C(C)C=CC(C)C1CCC2C1(C)CCC1C23C=CC2(CC(OC(=O)Cn4cc(CNC(=O)c5ccc6c(c5)C(=O)OC65c6ccc(N(C)C)cc6Oc6cc(N(C)C)ccc65)nn4)CCC12C)OO3", "note": "(stereo not shown) [3l]", "values": [{"measurement": "EC50", "setting": "[1]", "value": "> 20", "unit": "µM"}, {"measurement": "EC50", "setting": "[2]", "value": 18, "unit": "µM"}, {"measurement": "EC50", "setting": "[3]", "value": "> 20", "unit": "µM"}, {"measurement": "EC50", "setting": "[5]", "value": 20, "unit": "µM"}, {"measurement": "solubility properties (in words)", "setting": "[7]; water or PBS", "value": "poor solubility properties and precipitated readily in DMSO or PBS"}]}
{"smiles": "Cc1cc(C)n2c1C=C1C=CC(CCC(=O)OC3CCC4(C)C5CCC6(C)C(C(C)C=CC(C)C(C)C)CCC6C56C=CC4(C3)OO6)=[N+]1[B-]2(F)F", "note": "(stereo not shown) [3m]", "values": [{"measurement": "EC50", "setting": "[1]", "value": 18, "unit": "µM"}, {"measurement": "EC50", "setting": "[2]", "value": 2, "unit": "µM"}, {"measurement": "EC50", "setting": "[3]", "value": "> 15", "unit": "µM"}, {"measurement": "cytotoxicity compared with parental compound 3 (in words)", "setting": "[4]", "value": "comparable cytotoxicity to the parental compound 3"}, {"measurement": "EC50", "setting": "[5]", "value": 18, "unit": "µM"}, {"measurement": "ability to induce apoptosis", "setting": "[6]", "value": "validated via propidium iodide assay"}]}
{"smiles": "CC(C)C(C)C=CC(C)C1CCC2C1(C)CCC1C23C=CC2(CC(OC(=O)NS(=O)(=O)c4ccccc4)CCC12C)OO3", "note": "(stereo not shown) [EP sulfonamide, ergosterol peroxide sulfonamide]", "values": [{"measurement": "cytotoxic effects in normal BJ cells", "setting": "[8]", "value": "minimal"}, {"measurement": "solubility in DMSO", "setting": "[7]", "value": "≥ 10", "unit": "mM"}, {"measurement": "EC50", "setting": "[9]; FIG. 10A, SUM-149 breast cancer cells, read-out: EC50, cancer cell viability of derivative", "value": 12, "unit": "µM"}]}
{"smiles": "C[C@H](CC(=O)C[C@@H](C)[C@H]1C[C@H](O)[C@@]2(C)C3=C(C(=O)C[C@]12C)[C@@]1(C)CCC(=O)C(C)(C)[C@@H]1C[C@@H]3O)C(=O)O", "note": "[GA-01, ganoderic acid A]", "values": [{"measurement": "caspase 3/7 activity", "setting": "[10]", "value": "increase caspase 3/7 activity"}, {"measurement": "caspase 3/7 activity", "setting": "[11]", "value": "increase caspase 3/7 activity"}, {"measurement": "cytotoxic effects in normal BJ cells", "setting": "[8]", "value": "did not induce cytotoxic effects"}, {"measurement": "de novo protein synthesis inhibition", "setting": "[12]", "value": "do not inhibit de novo protein synthesis"}]}
{"smiles": "CC(C)(C)OO", "note": "[TBHP, t-Butyl hydroperoxide]", "values": [{"measurement": "ROS formation reduction when co-treated with NAC", "setting": "[13]", "value": "~50", "unit": "%"}]}
{"smiles": "CC(C)[C@@H](C)/C=C/[C@@H](C)[C@H]1CC[C@H]2C3=CC=C4C[C@@H](O)CC[C@]4(C)[C@H]3CC[C@]12C", "note": "[ergosterol]", "values": [{"measurement": "EC50", "setting": "[14]; 72-h treatment", "value": "> 50", "unit": "µM"}, {"measurement": "cancer cell viability significantly reduced starting at", "setting": "[14]; breast cancer cellular models, 72-h", "value": 64, "unit": "µM"}, {"measurement": "cytotoxic effects in normal BJ cells", "setting": "[8]", "value": "did not induce cytotoxic effects"}, {"measurement": "concentration at which SUM-149 cell viability is significantly reduced", "setting": "[9]; 72 h", "value": 64, "unit": "µM"}]}
{"smiles": "CC1=CC(=O)c2ccccc2C1=O", "note": "[menadione, Menadione, reference compound]", "values": [{"measurement": "reduction in ROS formation in the presence of NAC", "setting": "[15]", "value": "about 20%"}, {"measurement": "reduction in ROS formation in the presence of NAC", "setting": "[16]", "value": "about 20%"}]}
